Columns and labels:
[1] = molecular target: T1, human MER (528-end) (Homo sapiens, UniProt Q12866); experiment: HTRF kinase activity biochemical assay, MER; details: 10 μM ATP, 30 minutes pre-incubation; read-out: HTRF MERTK IC50
T1 construct: human MER (528-end); purchased Camnabio, Japan
T1 sequence (Q12866 528-999 limits assumed): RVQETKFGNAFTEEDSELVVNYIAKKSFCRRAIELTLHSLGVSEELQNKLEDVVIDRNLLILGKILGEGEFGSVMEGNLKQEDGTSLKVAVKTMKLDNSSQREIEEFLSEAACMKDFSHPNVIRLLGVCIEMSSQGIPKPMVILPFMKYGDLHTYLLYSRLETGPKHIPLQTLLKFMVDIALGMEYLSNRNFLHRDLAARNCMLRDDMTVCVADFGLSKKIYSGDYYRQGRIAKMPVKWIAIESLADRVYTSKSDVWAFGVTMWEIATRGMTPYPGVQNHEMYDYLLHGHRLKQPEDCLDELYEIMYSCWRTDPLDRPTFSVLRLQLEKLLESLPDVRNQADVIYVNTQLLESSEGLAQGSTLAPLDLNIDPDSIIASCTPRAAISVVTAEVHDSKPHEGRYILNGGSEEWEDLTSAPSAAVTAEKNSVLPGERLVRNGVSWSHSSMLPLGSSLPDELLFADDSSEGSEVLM

[2] = molecular target: T2, human TYRO3 (455-end) (Homo sapiens, UniProt Q06418); experiment: HTRF kinase activity biochemical assay, TYRO3; details: 10 μM ATP, 30 minutes pre-incubation; read-out: HTRF TYRO IC50
T2 construct: TYRO3 (455-end); purchased SignalChem, Canada
T2 sequence (Q06418 455-890 limits assumed): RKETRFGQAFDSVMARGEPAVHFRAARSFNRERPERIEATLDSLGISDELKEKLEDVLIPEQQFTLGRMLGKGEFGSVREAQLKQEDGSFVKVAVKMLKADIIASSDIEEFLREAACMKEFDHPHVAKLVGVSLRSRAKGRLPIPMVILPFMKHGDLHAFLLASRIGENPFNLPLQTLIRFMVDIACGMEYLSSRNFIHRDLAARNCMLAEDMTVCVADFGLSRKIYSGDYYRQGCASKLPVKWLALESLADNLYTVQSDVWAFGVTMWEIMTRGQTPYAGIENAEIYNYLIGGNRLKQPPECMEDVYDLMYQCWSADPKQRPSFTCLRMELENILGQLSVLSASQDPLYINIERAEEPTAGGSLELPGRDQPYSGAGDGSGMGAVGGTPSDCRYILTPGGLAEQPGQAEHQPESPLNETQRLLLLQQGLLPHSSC

[3] = molecular target: T3, human AXL (473-end) (Homo sapiens, UniProt P30530); experiment: HTRF kinase activity biochemical assay, AXL; details: 10 μM ATP, 30 minutes pre-incubation
T3 construct: human AXL (473-end); purchased SignalChem, Canada
T3 sequence (P30530 473-894 limits assumed): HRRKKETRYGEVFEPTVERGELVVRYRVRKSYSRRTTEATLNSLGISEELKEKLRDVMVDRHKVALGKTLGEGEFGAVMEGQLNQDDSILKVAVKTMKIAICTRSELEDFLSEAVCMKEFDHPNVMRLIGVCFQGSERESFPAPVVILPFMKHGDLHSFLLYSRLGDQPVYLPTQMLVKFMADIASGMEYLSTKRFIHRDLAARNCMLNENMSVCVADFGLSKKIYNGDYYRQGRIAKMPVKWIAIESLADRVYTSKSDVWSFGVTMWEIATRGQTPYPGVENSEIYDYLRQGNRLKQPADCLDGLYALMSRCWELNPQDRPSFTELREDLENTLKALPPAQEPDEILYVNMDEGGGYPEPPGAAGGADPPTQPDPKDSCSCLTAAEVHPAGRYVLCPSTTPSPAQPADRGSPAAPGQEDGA

IC50 [1]	IC50 [2]	IC50 [3]	SMILES
< 10 nM	10 to 100 nM	< 10 nM	Cn1cc(-c2cnc(N)c(C(=O)N[C@H]3CCC[C@@H]3OCc3ccc(-c4ccc5c(c4)C(C)(C)CN5C4CCN(CCO)CC4)cc3)c2)ccc1=O [Example 36, 6-amino-N-{(1S,2S)-2-[(4-{1-[1-(2-hydroxyethyl)piperidin-4-yl]-3,3-dimethyl-2,3-dihydro-1H-indol-5-yl}phenyl)methoxy]cyclopentyl}-1′-methyl-6′-oxo-1′,6′-dihydro[3,3′-bipyridine]-5-carboxamide]
< 10 nM	10 to 100 nM	< 10 nM	Cc1ncc(-c2cnc(N)c(C(=O)N[C@H]3CCC[C@@H]3OCc3ccc(-c4ccc5c(c4)CC[C@@H]5N4CCN(CCO)CC4)cc3)c2)s1 [Example 172, 2-amino-N-{(1S,2S)-2-[(4-{(1S)-1-[4-(2-hydroxyethyl)piperazin-1-yl]-2,3-dihydro-1H-inden-5-yl}phenyl)methoxy]cyclopentyl}-5-(2-methyl-1,3-thiazol-5-yl)pyridine-3-carboxamide]
< 10 nM	100 to 1000 nM	100 to 1000 nM	Cn1cc(-c2cnc(N)c(C(=O)N[C@H]3CCC[C@@H]3OCc3ccc(-c4ccc5c(c4)C4(CCOC4)CN5C4CCN(CCO)CC4)cc3)c2)cn1 (stereo partly drawn) [Example 43, 2-amino-N-{(1S,2S)-2-[(4-{1-[1-(2-hydroxyethyl)piperidin-4-yl]-1,2-dihydrospiro[indole-3,3′-oxolan]-5-yl}phenyl)methoxy]cyclopentyl}-5-(1-methyl-1H-pyrazol-4-yl)pyridine-3-carboxamide]
< 10 nM	100 to 1000 nM	< 10 nM	Cn1cc(-c2cnc(N)c(C(=O)N[C@H]3CCC[C@@H]3OCc3ccc(-c4ccc5c(ccn5C5CCNCC5)c4)cc3)c2)cn1 [Example 5, 2-amino-5-(1-methyl-1H-pyrazol-4-yl)-N-[(1S,2S)-2-({4-[1-(piperidin-4-yl)-1H-indol-5-yl]phenyl}methoxy)cyclopentyl]pyridine-3-carboxamide]
< 10 nM	10 to 100 nM	< 10 nM	Cn1cc(-c2cnc(N)c(C(=O)N[C@H]3CCC[C@@H]3OCc3ccc(-c4ccc5c(c4)OCCC5N4CCN(CCO)CC4)cc3)c2)cn1 (stereo partly drawn) [Example 121, 2-amino-N-{(1S,2S)-2-[(4-{4-[4-(2-hydroxyethyl)piperazin-1-yl]-3,4-dihydro-2H-1-benzopyran-7-yl}phenyl)methoxy]cyclopentyl}-5-(1-methyl-1H-pyrazol-4-yl)pyridine-3-carboxamide]
< 10 nM	10 to 100 nM	< 10 nM	Cn1cc(-c2cnc(N)c(C(=O)N[C@H]3CCC[C@@H]3OCc3ccc(-c4ccc5c(c4)C(C)(C)CCN5C4CCN(CCO)CC4)cc3)c2)cn1 [Example 114, 2-amino-N-{(1S,2S)-2-[(4-{1-[1-(2-hydroxyethyl)piperidin-4-yl]-4,4-dimethyl-1,2,3,4-tetrahydroquinolin-6-yl}phenyl)methoxy]cyclopentyl}-5-(1-methyl-1H-pyrazol-4-yl)pyridine-3-carboxamide]
10 to 100 nM	> 1000 nM	100 to 1000 nM	CN(CCC(O)CO)C1CCc2cc(-c3ccc(CO[C@H]4CCC[C@@H]4NC(=O)c4cc(-c5ccc(F)nc5)cnc4N)cc3)ccc21 (stereo partly drawn) [Example 126, 6-amino-N-{(1S,2S)-2-[(4-{1-[(3,4-dihydroxybutyl)(methyl)amino]-2,3-dihydro-1H-inden-5-yl}phenyl)methoxy]cyclopentyl}-6′-fluoro[3,3′-bipyridine]-5-carboxamide]
< 10 nM	100 to 1000 nM	10 to 100 nM	CC1(C)CN(C2CCN(CCO)CC2)c2ccc(-c3ccc(CO[C@H]4COC[C@@H]4NC(=O)c4cc(-c5ccc(F)nc5)cnc4N)cc3)cc21 [Example 35, 6-amino-6′-fluoro-N-{(3S,4R)-4-[(4-{1-[1-(2-hydroxyethyl)piperidin-4-yl]-3,3-dimethyl-2,3-dihydro-1H-indol-5-yl}phenyl)methoxy]oxolan-3-yl}[3,3′-bipyridine]-5-carboxamide]

Source: patent publication US20260146035A1, “FUSED BICYCLIC COMPOUNDS AND THEIR USE AS MER AND AXL INHIBITORS” (DONG-A ST CO., LTD., priority 2022, published 2026)
